According to article PMC8126888 (RSC Medicinal Chemistry, 2020):
≈ marks a conversion by molar mass, not a printed value. Where two headings read alike, the source gives them in different places.

What was measured:
[1] = system: Leishmania infantum MHOM/MA(BE)/67/ITMAP263 intracellular amastigotes; details: for L. inf. pIC50: intracellular amastigotes in PMM, geometric mean of a minimum of two experiments ± standard error
[2] = system: primary peritoneal mouse macrophages (PMM); details: for PMM pIC50: cytotoxicity to PMM, geometric mean of a minimum of two experiments ± standard error
[3] = system: Leishmania infantum (MHOM/MA/67/ITMAP-263) intracellular amastigotes in THP-1; details: THP-1 host cells, 120 hours
[4] = system: THP-1 cells; details: 120 hours, Alamar Blue
[5] = metabolite ID, peak area of substrate or metabolite
[6] = metabolite ID, peak area of substrate or metabolite; remark: listed apart in the source
[7] = system: primary peritoneal mouse macrophages (PMM); experiment: cells; details: Macrophage, read-out: PMM pIC50 (converted)
[8] = in vitro; details: human, microsomes, intrinsic in vitro clearance, liver microsomes
[9] = in vitro; details: mouse, microsomes, intrinsic in vitro clearance, liver microsomes
[10] = physchem; details: HPLC, Ascentis Express RP Amide column, pH 7.4, elog D, HPLC measured log D, pH 7.4
[11] = in vitro; details: human, PMA-differentiated THP-1 cells
[12] = system: Leishmania infantum MHOM/MA(BE)/67/ITMAP263 intracellular amastigotes; experiment: microbe, parasite or virus in culture; details: Macrophage, in Mus musculus, read-out: L. inf. pIC50, intracellular amastigotes in PMM (converted), geometric mean of a minimum of two experiments ± standard error
[13] = system: Leishmania infantum (MHOM/MA/67/ITMAP-263) intracellular amastigotes in THP-1; experiment: microbe, parasite or virus in culture; details: THP-1, 120 h, read-out: Intracellular activity pIC50 L. inf. in THP-1 (converted)
[14] = system: T. b. brucei (Squib-427); experiment: microbe, parasite or virus in culture; details: Trypanosoma brucei, RHODESIENSE
[15] = 6 h incubation in mouse plasma
[16] = in vitro; details: plasma, Plasma protein binding (PPB)
[17] = physchem; details: aqueous medium
[18] = human liver microsomes
[19] = pH 7.4
[20] = system: Trypanosoma cruzi, Tulahuen CL2, beta-galactosidase strain; details: read-out: T. cruzi Tulahuen C4 (LacZ) IC50
[21] = system: MRC-5SV2 cells; experiment: Cytotoxicity assay on MRC-5SV2 cells (resazurin); details: human, 3 days
[22] = system: primary peritoneal mouse macrophages (PMM); experiment: Cytotoxicity to PMM (microscopic scoring within susceptibility assay); details: Swiss, mouse
[23] = pH 7.4, Microsome Clint,u Human, Table 2

Question: What does the source list for `COc1ccc(OC)c(S(=O)(=O)N(Cc2ccc(F)cc2)Cc2oc(C)nc2C)c1` [SI51]?
Answer: L. inf. pIC50 [1]: 5.63±0.04; PMM pIC50 [2]: < 4.19; Intracellular activity pIC50 L. inf. in THP-1 [3]: 4.51±0.03; pIC50 Cytotoxicity THP-1 [4]: < 4.19

Question: For `COc1ccc(C(=O)NC2COC2)cc1S(=O)(=O)N(Cc1ccc(F)cc1)Cc1ccc(F)cc1` [Compound 23], which “Area% Mouse” value [5] is on record?
Answer: The value was 89.1%.

Question: What about the “Area% Human” value [6] of the same compound?
Answer: Its value is 84.9%.

Question: What about the IC50 [7] of the same compound?
Answer: The IC50 was over 64.6 µM.

Question: And the microsomal CLint at 0.5 μM ([8]; pH 7.4, Microsome Clint Human)?
Answer: Its microsomal CLint at 0.5 μM is 178 µL/min/mg.

Question: What about the microsomal CLint at 0.5 μM ([9]; pH 7.4, Microsome Clint Mouse) of the same compound?
Answer: Its microsomal CLint at 0.5 μM is 395 µL/min/mg.

Question: What about the chromatographic logD [10] of the same compound?
Answer: Its chromatographic logD is 4.

Question: What about the IC50 at 120 h [11] of the same compound?
Answer: The IC50 at 120 h was over 64.6 µM.

Question: And the IC50 [12]?
Answer: Its IC50 is 0.794 µM.

Question: And the IC50 [13]?
Answer: Its IC50 is 8.51 µM.

Question: With `Cc1ccc(C(=O)Nc2ccc(S(=O)(=O)O)c3cc(S(=O)(=O)O)cc(S(=O)(=O)O)c23)cc1NC(=O)c1cccc(NC(=O)Nc2cccc(C(=O)Nc3cc(C(=O)Nc4ccc(S(=O)(=O)O)c5cc(S(=O)(=O)O)cc(S(=O)(=O)O)c45)ccc3C)c2)c1` [Suramin] as the compound, how does the IC50 [14] read?
Answer: The IC50 was about 0.05 µM.

Question: With `COc1ccc(C(=O)N2CCOCC2)cc1S(=O)(=O)N(Cc1ccccc1)Cc1cnc(C(F)(F)F)nc1` [Compound 47] as the compound, how does the “improvement in the in vitro mouse clearance” value (versus the preceding analogue) read?
Answer: The value was 4 fold.

Question: And the “Mouse plasma stability (6 h)” value [15]?
Answer: Its value is 42 % remaining.

Question: And the IC50 [7]?
Answer: The IC50 was over 64.6 µM.

Question: What about the microsomal CLint at 0.5 h, 0.5 µM [8, 23] of the same compound?
Answer: Its microsomal CLint at 0.5 h, 0.5 µM is 73 µL/min/mg.

Question: And the microsomal CLint at 0.5 h, 0.5 µM ([9]; pH 7.4, Microsome Clint,u Mouse, Table 2)?
Answer: The microsomal CLint at 0.5 h, 0.5 µM was 152 µL/min/mg.

Question: And the chromatographic logD [10]?
Answer: Its chromatographic logD is 3.5.

Question: What about the fraction unbound [16] of the same compound?
Answer: Its fraction unbound is 0.117.

Question: What about the solubility kinetic ([17]; pH 2.0, pH 2) of the same compound?
Answer: Its solubility kinetic is 11.3 µg/mL (≈ 20.5 µM).

Question: And the solubility kinetic ([17]; pH 7.4, pH 7.4)?
Answer: Its solubility kinetic is 6.2 µg/mL (≈ 11.3 µM).

Question: And the IC50 at 120 h [11]?
Answer: The IC50 at 120 h was over 64.6 µM.

Question: What about the IC50 [12] of the same compound?
Answer: Its IC50 is 4.47 µM.

Question: What about the IC50 [13] of the same compound?
Answer: The IC50 was over 64.6 µM.

Question: With `COc1ccc(OC)c(S(=O)(=O)N(C)Cc2ccc(F)cc2)c1` [Compound 37] as the compound, how does the “Area% Mouse” value [5] read?
Answer: Its value is 76.1%.

Question: What about the “Area% Human” value [6] of the same compound?
Answer: The value was 22.5%.

Question: What about the IC50 [7] of the same compound?
Answer: The IC50 was over 64.6 µM.

Question: What about the microsomal CLint at 0.5 μM [8, 23] of the same compound?
Answer: Its microsomal CLint at 0.5 μM is 414 µL/min/mg.

Question: And the chromatographic logD [10]?
Answer: Its chromatographic logD is 3.7.

Question: What about the IC50 [12] of the same compound?
Answer: Its IC50 is 11.7 µM.

Question: Which results are given for `CC[C@H](Cc1ccccc1)[S+]([O-])c1ccccc1OC` (stereo partly drawn) [DNDI0003362002]?
Answer: L. Inf. pIC50 ([1]; from L. infantum intracellular amastigote IC50): 4.45; IC50 ([1]; read-out: L. infantum MHOM/MA(BE)/67/ITMAP263 intracellular amastigotes IC50): 35.3 µM; SI (vs PMM) ([2]; PMM IC50 / L. infantum IC50): 2; HLM CLint [18]: 390 µL/min/mg; MLM CLint (mouse liver microsomes): 3623 µL/min/mg; eLogD [19]: 3.7; IC50 [20]: 30.8 µM; CC50 [21]: > 64 µM; IC50 [22]: > 64 µM

Question: Which results are given for `COc1ccc(S(C)(=O)=O)cc1S(=O)(=O)N(Cc1ccccc1)CC(C)(C)C` [SI52]?
Answer: L. inf. pIC50 [1]: 5.56±0.28; PMM pIC50 [2]: < 4.19; Intracellular activity pIC50 L. inf. in THP-1 [3]: 4.32±0.01; pIC50 Cytotoxicity THP-1 [4]: < 4.19
